Data published in patent US11406576B2, “Method for removing keratotic plugs” (KAO CORPORATION, priority 2017, dated 2022).

Key:
[1] = Detergency against keratotic plugs: penetration of the sample into keratotic plugs; parameters: species or system human; settings: keratotic plugs kept in contact with sample for 1 minute; results of Table 1
Protocol: (§1) Keratotic plugs in the nasal region were removed with “Biore Nose Pack (manufactured by Kao Corporation)”, the resulting keratotic plugs on the pack were gently taken out with tweezers.
(§2) The resulting keratotic plugs were placed on a slide glass and were covered with a cover glass, and 0.05 mL of a sample was dropwise added to an edge of the cover glass. Consequently, the sample entered into the gap between the slide glass and the cover glass by capillary phenomenon and was brought into contact with the keratotic plugs. The contact of the keratotic plugs with the sample was recorded with a digital microscope (VHX-5000, manufactured by Keyence Corporation, magnification: ×150), and the penetration of the sample into the keratotic plugs and the collapse state of the keratotic plugs were evaluated after one minute from the contact of the keratotic plugs with the sample. The results of each evaluation are shown in the columns “Detergency against keratotic plugs (penetration)” and “Detergency against keratotic plugs (during cleansing)” in Tables. The measurements were performed at 25° C.
(§3) The penetration was relatively evaluated by 11 criteria from the state 1 “the sample hardly penetrated into the keratotic plug” to the state 11 “the sample penetrated to the center of the keratotic plug”. The collapsibility by the detergency against keratotic plugs was relatively evaluated by 11 criteria from the state 1 “almost no change is observed in the external appearance of the keratotic plug” to the state 11 “peeling or separation is observed in the area from the surface layer to the central portion of the keratotic plug (the initial appearance of the keratotic plug is not retained)”.

[2] = Detergency against keratotic plugs during cleansing (collapse state); parameters: species or system human; settings: keratotic plugs kept in contact with sample for 1 minute; results of Table 1
Protocol: as §1, §2, §3

[3] = Detergency against keratotic plugs after washing with water (collapse state); parameters: species or system human; settings: keratotic plugs kept in contact with water for 1 minute after contact with sample
Source text: as §3
After one minute from the contact of the keratotic plugs with the sample, KimWipes (registered trademark) was brought into contact with an edge of the cover glass to remove the sample under the cover glass. Subsequently, 0.05 mL of water was dropwise added to an edge of the cover glass. The sample dropwise added with water was recorded with the digital microscope, and the collapse state of the keratotic plugs was evaluated after one minute from the contact of the keratotic plugs with water according to the criteria for evaluating collapsibility of the keratotic plugs. The results of the evaluation are shown in the column “Detergency against keratotic plugs (after washing with water)” in Table. The measurements were performed at 25° C.

[4] = cited from earlier work
[5] = test system: insoluble protein (zein protein); assay: Effect of suppressing protein aggregation (precipitation of insoluble protein); settings: results of Table 1
Protocol: Thirty milliliters of a sample and 0.06 g of an insoluble protein (zein protein) were placed in a 35-mL standard glass bottle, and the concentration of the insoluble protein was adjusted to 0.2 mass % (test sample). Separately, a standard sample was prepared by using water instead of the sample and adjusting the concentration of the insoluble protein to 0.2 mass %. Subsequently, the standard glass bottles were sufficiently shaken and stirred up and down (shake width: 15 cm, 20 times at a shake rate of 5 times per 3 seconds) in a thermostatic chamber of 25° C. and were left to stand for 3 minutes. The precipitation state of the insoluble protein was then visually verified, and the ratio of the amount of the precipitated standard sample to the amount of the precipitated test sample (the height of the precipitate in each standard glass bottle was measured as the precipitation amount), (precipitation amount of standard sample)/(precipitation amount of test sample), was calculated. A higher ratio indicates a higher effect of suppressing protein aggregation.

O=C([O-])O.[Na+] [sodium hydrogen carbonate]
penetration into keratotic plugs (in words) [1]: hardly penetrated into keratotic plugs
collapse of keratotic plugs on contact with sample (in words) [2]: did not progress
collapse of keratotic plugs on contact with water after the sample (in words) [3]: did not progress

CC(C)(N)CO [AMP, 2-amino-2-methyl-1-propanol]
penetration into keratotic plugs (in words) [1]: penetrated into keratotic plugs
collapse of keratotic plugs on contact with water after the sample (in words) [3]: accelerating the collapse
solubility in water (in words) [4]: readily dissolved in water

NC(CO)(CO)CO [Tris, 2-amino-2-hydroxymethyl-1,3-propanediol]
penetration into keratotic plugs (in words) [1]: penetrated into keratotic plugs
collapse of keratotic plugs on contact with water after the sample (in words) [3]: accelerating the collapse
solubility in water (in words) [4]: readily dissolved in water

O=P([O-])([O-])O.[Na+].[Na+] [disodium hydrogen phosphate]
penetration into keratotic plugs (in words) [1]: hardly penetrated into keratotic plugs
collapse of keratotic plugs on contact with sample (in words) [2]: did not progress
collapse of keratotic plugs on contact with water after the sample (in words) [3]: did not progress

O=P([O-])([O-])[O-].[Na+].[Na+].[Na+] [trisodium phosphate]
penetration into keratotic plugs (in words) [1]: hardly penetrated into keratotic plugs
collapse of keratotic plugs on contact with sample (in words) [2]: did not progress
collapse of keratotic plugs on contact with water after the sample (in words) [3]: did not progress

sodium polyoxyethylene (2) lauryl ether sulfate [POE (2) sodium lauryl sulfate]
penetration into keratotic plugs (in words) [1]: hardly penetrated into the keratotic plugs
collapse of keratotic plugs on contact with sample (in words) [2]: did not progress
action on proteins (in words) [5]: dissolve the proteins

CC(N)(CO)CO [AMPD, 2-amino-2-methyl-1,3-propanediol]
penetration into keratotic plugs (in words) [1]: penetrated into keratotic plugs
collapse of keratotic plugs on contact with water after the sample (in words) [3]: accelerating the collapse
